Data: ChEMBL document CHEMBL6120963, “Discovery of Novel PROTAC SIRT6 Degraders with Potent Efficacy against Hepatocellular Carcinoma” (J Med Chem, 2024)
The source made the active and inactive calls. The calls are words filed in the database; no cut-off is given here.

How the values were obtained:
[1] = molecular target: T1, Protein cereblon/NAD-dependent protein deacylase sirtuin-6 (Homo sapiens, UniProt Q8N6T7+Q96SW2); experiment: PROTAC activity at CRBN/SIRT6 in human SK-HEP1 cells assessed as induction of SIRT6 degradation at 2 uM incubated for 36 hrs by In-Cell ELISA relative to control; type: cell-based
Target sequence in this assay (Q8N6T7 2-355 limits assumed): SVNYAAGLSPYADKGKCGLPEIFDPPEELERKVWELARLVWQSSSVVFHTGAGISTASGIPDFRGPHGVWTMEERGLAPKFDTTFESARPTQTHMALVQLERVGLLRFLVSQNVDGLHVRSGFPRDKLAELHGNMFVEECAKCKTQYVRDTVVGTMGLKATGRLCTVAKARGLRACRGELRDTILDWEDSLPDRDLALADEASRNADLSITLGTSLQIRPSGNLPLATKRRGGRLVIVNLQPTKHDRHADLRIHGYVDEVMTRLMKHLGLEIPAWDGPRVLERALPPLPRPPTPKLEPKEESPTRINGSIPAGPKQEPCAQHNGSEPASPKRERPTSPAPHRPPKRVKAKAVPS
Target sequence in this assay (Q96SW2 whole entry partner): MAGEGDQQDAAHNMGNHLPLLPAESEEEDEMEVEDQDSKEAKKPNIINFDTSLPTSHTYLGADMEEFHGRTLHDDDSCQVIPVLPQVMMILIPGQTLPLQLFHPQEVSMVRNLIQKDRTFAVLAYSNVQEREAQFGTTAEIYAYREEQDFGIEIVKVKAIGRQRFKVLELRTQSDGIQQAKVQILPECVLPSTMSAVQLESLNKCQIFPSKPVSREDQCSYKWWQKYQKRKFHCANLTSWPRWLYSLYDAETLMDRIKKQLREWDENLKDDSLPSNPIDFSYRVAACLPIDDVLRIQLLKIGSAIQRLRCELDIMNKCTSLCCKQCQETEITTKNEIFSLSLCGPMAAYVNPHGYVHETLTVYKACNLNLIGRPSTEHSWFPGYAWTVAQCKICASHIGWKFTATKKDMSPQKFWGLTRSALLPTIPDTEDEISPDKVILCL

[2] = molecular target: T1, Protein cereblon/NAD-dependent protein deacylase sirtuin-6; experiment: PROTAC activity at CRBN/SIRT6 in human SK-HEP1 cells assessed as induction of SIRT6 degradation at 200 nM incubated for 36 hrs by In-Cell ELISA relative to control; type: cell-based
Target sequence in this assay (Q8N6T7 2-355 limits assumed): as the sequence (Q8N6T7 2-355 limits assumed) above
Target sequence in this assay (Q96SW2 whole entry partner): as the sequence (Q96SW2 whole entry partner) above

[3] = molecular target: T1, Protein cereblon/NAD-dependent protein deacylase sirtuin-6; experiment: PROTAC activity at CRBN/SIRT6 in human SK-HEP1 cells assessed as induction of SIRT6 degradation at 2 to 3 uM incubated for 36 hrs by Western blot analysis; type: cell-based; settings: dose 2-3 µM
Target sequence in this assay (Q8N6T7 2-355 limits assumed): as the sequence (Q8N6T7 2-355 limits assumed) above
Target sequence in this assay (Q96SW2 whole entry partner): as the sequence (Q96SW2 whole entry partner) above

[4] = molecular target: T1, Protein cereblon/NAD-dependent protein deacylase sirtuin-6; experiment: PROTAC activity at CRBN/SIRT6 in human SK-HEP1 cells assessed as induction of SIRT6 degradation at 0.5 uM incubated for 36 hrs by In-Cell ELISA relative to control; type: cell-based
Target sequence in this assay (Q8N6T7 2-355 limits assumed): as the sequence (Q8N6T7 2-355 limits assumed) above
Target sequence in this assay (Q96SW2 whole entry partner): as the sequence (Q96SW2 whole entry partner) above

[5] = molecular target: T1, Protein cereblon/NAD-dependent protein deacylase sirtuin-6; experiment: PROTAC activity at CRBN/SIRT6 in human SK-HEP1 cells assessed as induction of SIRT6 degradation at 5 uM incubated for 36 hrs by In-Cell ELISA relative to control; type: cell-based
Target sequence in this assay (Q8N6T7 2-355 limits assumed): as the sequence (Q8N6T7 2-355 limits assumed) above
Target sequence in this assay (Q96SW2 whole entry partner): as the sequence (Q96SW2 whole entry partner) above

[6] = molecular target: T1, Protein cereblon/NAD-dependent protein deacylase sirtuin-6; experiment: PROTAC activity at CRBN/SIRT6 in human SK-HEP1 cells assessed as efficiency of SIRT6 degradation at 2 uM incubated for 36 hrs by Western blot analysis relative to control; type: cell-based
Target sequence in this assay (Q8N6T7 2-355 limits assumed): as the sequence (Q8N6T7 2-355 limits assumed) above
Target sequence in this assay (Q96SW2 whole entry partner): as the sequence (Q96SW2 whole entry partner) above

[7] = molecular target: T1, Protein cereblon/NAD-dependent protein deacylase sirtuin-6; experiment: PROTAC activity at CRBN/SIRT6 in human Huh-7 cells assessed as induction of SIRT6 degradation incubated for 36 hrs by Western blot analysis; type: cell-based
[8] = molecular target: T1, Protein cereblon/NAD-dependent protein deacylase sirtuin-6; experiment: PROTAC activity at CRBN/SIRT6 in human SK-HEP1 cells assessed as hook effect upto 5 uM incubated for 36 hrs by Western blot analysis; type: cell-based
SK-HEP1 [9] = experiment: Cytotoxicity against human SK-HEP1 cells incubated for 72 hrs by CCK8 assay; type: functional, cell-based; settings: SK-HEP1, 72 h
[10] = molecular target: T1, Protein cereblon/NAD-dependent protein deacylase sirtuin-6; experiment: PROTAC activity at CRBN/SIRT6 in human SK-HEP1 cells assessed as induction of SIRT6 degradation upto 10 uM incubated for 36 hrs by Western blot analysis relative to control; type: cell-based
[11] = molecular target: T1, Protein cereblon/NAD-dependent protein deacylase sirtuin-6; experiment: PROTAC activity at CRBN/SIRT6 in human Huh-7 cells assessed as induction of SIRT6 degradation upto 10 uM incubated for 36 hrs by Western blot analysis relative to control; type: cell-based
[12] = molecular target: T1, Protein cereblon/NAD-dependent protein deacylase sirtuin-6; experiment: PROTAC activity at CRBN/SIRT6 in human SK-HEP1 cells assessed as induction of SIRT6 degradation incubated for 36 hrs by Western blot analysis; type: cell-based; settings: for Activity: dose 0.02-5 µM
SK-HEP1 [13] = experiment: Induction of SIRT6 degradation in human SK-HEP1 cells at 0.5 uM incubated for 36 hrs by In-Cell ELISA relative to control; type: cell-based
SK-HEP1 [14] = experiment: Induction of SIRT6 degradation in human SK-HEP1 cells at 5 uM incubated for 36 hrs by In-Cell ELISA relative to control; type: cell-based
[15] = molecular target: NAD-dependent protein deacylase sirtuin-6 (Homo sapiens) (UniProt Q8N6T7); experiment: Inhibition of SIRT6 in human SK-HEP1 cells assessed as increase in H3K9Ac level incubated for 36 hrs by Western blot analysis; type: cell-based; settings: dose 1.25-20 µM
[16] = molecular target: T1, Protein cereblon/NAD-dependent protein deacylase sirtuin-6; experiment: PROTAC activity at CRBN/SIRT6 in human Huh-7 cells assessed as hook effect at 5 uM incubated for 36 hrs by Western blot analysis; type: cell-based
[17] = molecular target: T1, Protein cereblon/NAD-dependent protein deacylase sirtuin-6; experiment: PROTAC activity at CRBN/SIRT6 in human SK-HEP1 cells assessed as induction of SIRT6 degradation at 0.02 to 5 uM incubated for 36 hrs by Western blot analysis; type: cell-based; settings: dose 0.02-5 µM

NAD-dependent protein deacylase sirtuin-6 (Homo sapiens), sequence (Q8N6T7 whole entry): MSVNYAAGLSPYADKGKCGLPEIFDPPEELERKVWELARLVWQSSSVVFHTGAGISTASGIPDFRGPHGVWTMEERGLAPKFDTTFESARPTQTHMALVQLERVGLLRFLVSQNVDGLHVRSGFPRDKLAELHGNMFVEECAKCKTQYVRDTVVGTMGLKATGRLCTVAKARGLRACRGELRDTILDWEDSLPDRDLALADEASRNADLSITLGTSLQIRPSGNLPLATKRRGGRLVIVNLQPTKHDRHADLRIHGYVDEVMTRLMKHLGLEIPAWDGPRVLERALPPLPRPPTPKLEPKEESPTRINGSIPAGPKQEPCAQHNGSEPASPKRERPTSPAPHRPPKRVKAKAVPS

SMILES	Activity [1] [%]	Activity [2] [%]	Activity [3]	other results
Nc1cc(N2CCN(CC3CCCN(c4ccc5c(c4)C(=O)N(C4CCC(=O)NC4=O)C5=O)C3)CC2)ccc1[N+](=O)[O-] (stereo unspecified)	87.1	< 10	Active	
Nc1cc(N2CCN(CCNCC3CCCN(c4cc5c(cc4F)C(=O)N(C4CCC(=O)NC4=O)C5=O)C3)CC2)ccc1[N+](=O)[O-] (stereo unspecified)	98.5	81.2	Active	
Nc1cc(N2CCN(CCOCCOCCOCCOCC(=O)Nc3cccc4c3C(=O)N(C3CCC(=O)NC3=O)C4=O)CC2)ccc1[N+](=O)[O-] (stereo unspecified)				Activity [4]: 27.8%
Nc1cc(N2CCN(CCNCCCC3CCN(c4cc5c(cc4F)C(=O)N(C4CCC(=O)NC4=O)C5=O)CC3)CC2)ccc1[N+](=O)[O-] (stereo unspecified)	97.9	64.3	Active	
Nc1cc(N2CCN(CCNC(=O)COc3cccc4c3C(=O)N(C3CCC(=O)NC3=O)C4=O)CC2)ccc1[N+](=O)[O-] (stereo unspecified)				Activity [4]: 85.7%; Activity [5]: 72.3%
Nc1cc(N2CCN(CCNCCCC3CCN(c4ccc5c(c4)C(=O)N(C4CCC(=O)NC4=O)C5=O)CC3)CC2)ccc1[N+](=O)[O-] (stereo unspecified)	82.4	53.2	Active	
Nc1cc(N2CCN(CCNCCC3CCN(c4ccc5c(c4)C(=O)N(C4CCC(=O)NC4=O)C5=O)CC3)CC2)ccc1[N+](=O)[O-] (stereo unspecified)	73.6	49.3		
Nc1cc(N2CCN(CC3C4CN(c5ccc6c(c5)C(=O)N(C5CCC(=O)NC5=O)C6=O)CC34)CC2)ccc1[N+](=O)[O-] (stereo unspecified)	17.8			
Nc1cc(N2CCN(C(=O)COc3cccc4c3C(=O)N(C3CCC(=O)NC3=O)C4=O)CC2)ccc1[N+](=O)[O-] (stereo unspecified)				Activity [4]: 32.2%; Activity [5]: 15.8%
Nc1cc(N2CCN(C(=O)CNc3cccc4c3C(=O)N(C3CCC(=O)NC3=O)C4=O)CC2)ccc1[N+](=O)[O-] (stereo unspecified)				Activity [5]: 15.4%
Nc1cc(N2CCN(CCNCC3CCN(c4cc5c(cc4F)C(=O)N(C4CCC(=O)NC4=O)C5=O)CC3)CC2)ccc1[N+](=O)[O-] (stereo unspecified)	84.7	60.5	Active	
Nc1cc(N2CCN(CCNCC3C4CN(c5cc6c(cc5F)C(=O)N(C5CCC(=O)NC5=O)C6=O)CC34)CC2)ccc1[N+](=O)[O-] (stereo unspecified)	< 10			
Nc1cc(N2CCN(CC3CCN(c4ccc5c(c4)C(=O)N(C4CCC(=O)NC4=O)C5=O)C3)CC2)ccc1[N+](=O)[O-] (stereo unspecified)	98.2	11.9	Active	Activity [6]: > 95%; DC50 [7]: 0.36 µM; Activity [8]: inactive; IC50 (SK-HEP1 [9]): 2.19 µM; Emax [10]: 96.2%; Emax [11]: 78.5%; DC50 [12]: 0.0915 µM; Activity [12]: Dose-dependent-effect
Nc1cc(N2CCN(CC3CCN(c4cc5c(cc4F)C(=O)N(C4CCC(=O)NC4=O)C5=O)C3)CC2)ccc1[N+](=O)[O-] (stereo unspecified)	99.8	94.5	Active	
CN1CCN(c2ccc([N+](=O)[O-])c(N)c2)CC1				IC50 (SK-HEP1 [9]): 4.26 µM; Activity (SK-HEP1 [13]): 1.8%; Activity (SK-HEP1 [14]): 4.9%; inhibition [15]: Dose-dependent-effect
Nc1cc(N2CCN(CC3C4CN(c5cc6c(cc5F)C(=O)N(C5CCC(=O)NC5=O)C6=O)CC34)CC2)ccc1[N+](=O)[O-] (stereo unspecified)	95.6	89.4	Active	

SMILES	Activity [1] [%]	Activity [2] [%]	Activity [3]	other results
Nc1cc(N2CCN(CCCC3CCN(c4cc5c(cc4F)C(=O)N(C4CCC(=O)NC4=O)C5=O)CC3)CC2)ccc1[N+](=O)[O-] (stereo unspecified)	94.6	90.3	Active	DC50 [7]: 0.263 µM; Activity ([7]; dose 0.008-5 µM): Dose-dependent-effect; But Reduced Degradation Efficiency Observed; Activity [16]: Active; Activity [17]: Active; IC50 (SK-HEP1 [9]): 1.64 µM; Emax [10]: 97.7%; Emax [11]: 81.5%; DC50 [12]: 0.0504 µM
Nc1cc(N2CCN(CC3CCN(c4ccc5c(c4)C(=O)N(C4CCC(=O)NC4=O)C5=O)CC3)CC2)ccc1[N+](=O)[O-] (stereo unspecified)	93.6	85.9	Active	Activity [6]: > 95%; DC50 [7]: 0.239 µM; Activity [8]: inactive; IC50 (SK-HEP1 [9]): 1.75 µM; Emax [10]: 94.8%; Emax [11]: 90.6%; DC50 [12]: 0.106 µM; Activity [12]: Dose-dependent-effect
Nc1cccc2c1C(=O)N(C1CCC(=O)NC1=O)C2=O (stereo unspecified)				Activity (SK-HEP1 [13]): 6.5%; Activity (SK-HEP1 [14]): 10.9%
Nc1cc(N2CCN(CCNCC3CN(c4cc5c(cc4F)C(=O)N(C4CCC(=O)NC4=O)C5=O)C3)CC2)ccc1[N+](=O)[O-] (stereo unspecified)	83.5	46.1		
Nc1cc(N2CCN(CCCCC(=O)Nc3cccc4c3C(=O)N(C3CCC(=O)NC3=O)C4=O)CC2)ccc1[N+](=O)[O-] (stereo unspecified)				Activity [4]: 18.2%; Activity [5]: 49.3%
Nc1cc(N2CCN(CCCCCC(=O)Nc3cccc4c3C(=O)N(C3CCC(=O)NC3=O)C4=O)CC2)ccc1[N+](=O)[O-] (stereo unspecified)				Activity [4]: 47.8%; Activity [5]: 36.8%
Nc1cc(N2CCN(CCC3CCN(c4cc5c(cc4F)C(=O)N(C4CCC(=O)NC4=O)C5=O)CC3)CC2)ccc1[N+](=O)[O-] (stereo unspecified)	19.8	< 10		
Nc1cc(N2CCN(CC(=O)Nc3cccc4c3C(=O)N(C3CCC(=O)NC3=O)C4=O)CC2)ccc1[N+](=O)[O-] (stereo unspecified)				Activity [4]: < 5%; Activity [5]: 17.4%
Nc1cc(N2CCN(CCNCCC3CCN(c4cc5c(cc4F)C(=O)N(C4CCC(=O)NC4=O)C5=O)CC3)CC2)ccc1[N+](=O)[O-] (stereo unspecified)	74.8		Active	
Nc1cc(N2CCN(CC3CCCN(c4cc5c(cc4F)C(=O)N(C4CCC(=O)NC4=O)C5=O)C3)CC2)ccc1[N+](=O)[O-] (stereo unspecified)	56.6	< 10		Activity [8]: inactive
Nc1cc(N2CCN(CCNCC3CCN(c4cc5c(cc4F)C(=O)N(C4CCC(=O)NC4=O)C5=O)C3)CC2)ccc1[N+](=O)[O-] (stereo unspecified)	78.4	66.2	Active	
Nc1cc(N2CCN(CC3CN(c4cc5c(cc4F)C(=O)N(C4CCC(=O)NC4=O)C5=O)C3)CC2)ccc1[N+](=O)[O-] (stereo unspecified)	20.6	< 10		
Nc1cc(N2CCN(CCNCC3C4CN(c5ccc6c(c5)C(=O)N(C5CCC(=O)NC5=O)C6=O)CC34)CC2)ccc1[N+](=O)[O-] (stereo unspecified)	15.4			
Nc1cc(N2CCN(CCC(=O)Nc3cccc4c3C(=O)N(C3CCC(=O)NC3=O)C4=O)CC2)ccc1[N+](=O)[O-] (stereo unspecified)				Activity [4]: 25.6%; Activity [5]: 47.2%
Nc1cc(N2CCN(CCCC(=O)Nc3cccc4c3C(=O)N(C3CCC(=O)NC3=O)C4=O)CC2)ccc1[N+](=O)[O-] (stereo unspecified)				Activity [4]: 72.1%; Activity [5]: 87.3%

Now from value to compound, other results behind:

Activity [1] [%]	Activity [2] [%]	Activity [3]	SMILES	other results
		Active	Nc1cc(N2CCN(CCNC(=O)CNc3cccc4c3C(=O)N(C3CCC(=O)NC3=O)C4=O)CC2)ccc1[N+](=O)[O-] (stereo unspecified)	Activity [4]: 86.5%; Activity [5]: 91.4%
79.6	11.2	Active	Nc1cc(N2CCN(CCC3CCN(c4ccc5c(c4)C(=O)N(C4CCC(=O)NC4=O)C5=O)CC3)CC2)ccc1[N+](=O)[O-] (stereo unspecified)	
		Active	Nc1cc(N2CCN(CCOCCOCC(=O)Nc3cccc4c3C(=O)N(C3CCC(=O)NC3=O)C4=O)CC2)ccc1[N+](=O)[O-] (stereo unspecified)	Activity [4]: 46.7%; Activity [5]: 90.6%
11	50.6		Nc1cc(N2CCN(CC3CN(c4ccc5c(c4)C(=O)N(C4CCC(=O)NC4=O)C5=O)C3)CC2)ccc1[N+](=O)[O-] (stereo unspecified)	
		Active	Nc1cc(N2CCN(CCOCCOCCOCC(=O)Nc3cccc4c3C(=O)N(C3CCC(=O)NC3=O)C4=O)CC2)ccc1[N+](=O)[O-] (stereo unspecified)	Activity [4]: 44.9%; Activity [5]: 80.8%
98.9	84.9	Active	Nc1cc(N2CCN(CCCC3CCN(c4ccc5c(c4)C(=O)N(C4CCC(=O)NC4=O)C5=O)CC3)CC2)ccc1[N+](=O)[O-] (stereo unspecified)	
< 10			Nc1cc(N2CCN(CCNCC3CCN(c4ccc5c(c4)C(=O)N(C4CCC(=O)NC4=O)C5=O)CC3)CC2)ccc1[N+](=O)[O-] (stereo unspecified)	
< 10			Nc1cc(N2CCN(CCNCC3CCN(c4ccc5c(c4)C(=O)N(C4CCC(=O)NC4=O)C5=O)C3)CC2)ccc1[N+](=O)[O-] (stereo unspecified)	
51.6	74.2		Nc1cc(N2CCN(CCNCC3CCCN(c4ccc5c(c4)C(=O)N(C4CCC(=O)NC4=O)C5=O)C3)CC2)ccc1[N+](=O)[O-] (stereo unspecified)	
